{"source": "patent US11638427B2", "about": "“Methods and compositions for altering secondary metabolites in plants” (Impello Biosciences, Inc, priority 2020, dated 2023)", "key": {"[1]": {"system": "high-CBD hemp varieties Stormy Daniels and BaOX", "test": "Field foliar applications of MDJ, MeJA and CJ on high-CBD hemp, cannabinoid analysis", "assay_type": "in vivo, Cannabis spp.", "conditions": "7.5 mM foliar, four applications every 14 days in flowering", "description": "However, MDJ is not known to have any significant bioactivity in planta and is not an endogenously produced phytohormone in cannabis, so it was unknown whether MDJ would afford the same functionality as MeJA. Similarly, CJ has likewise been relatively under-investigated as a plant elicitor despite being a decarboxylation product of Jasmonic Acid. Here, the effect of MDJ and CJ were analyzed (in addition to MeJA) in order to determine any difference in the effect of these treatments on field-grown high-CBD hemp varieties.\nA hemp field experiment was conducted during the flowering phase of plant development in a private research field located in North Carolina. Sixty (60) plants from two distinct plant variety populations, Stormy Daniels and BaOX were selected for the trial. Each group of 60 plants was randomly divided into three groups of 20 plants and labeled accordingly to indicate the treatment group (T1, T2, T3). All plants were cultivated identically and subjected to approximately the same environmental conditions. Control, untreated plants were taken from the same field. Plants were treated according to treatment group, and each treatment group was subjected to four (4) applications of its respective treatment, with the first treatments applied on what was considered to be the first day of the flowering phase and repeated then again every successive 14 days up until just prior to harvest. Treatments were as follows: Control group=Control, Treatment 1=MDJ, Treatment 2=MeJA, Treatment 3=CJ.\nAll treatments were prepared in a stock (concentrated, non-aqueous) form by Impello Biosciences in their lab in Loveland, Colo. and labelled respectively prior to the start of the experiment. All treatments were prepared at a high stock concentration that allowed dilution by the applicator with 2 liters of water to a final 7.5 mM concentration of active ingredient (i.e., MeJA, MDJ, or CJ) for each treatment; 15-mL centrifuge tubes were used as preparation and storage vessels for each of the treatments. Preparation of the stock solutions ensured that the applicator could store the solutions prior to use at 4° C. to minimize degradation and allow for dilution immediately prior to use. In the stock containers, 2 mL of TWEEN®-20 was added to each respective elicitor compound as an emulsifier in order to reach a final oil-in-water emulsion once diluted with a concentration of 7.5 mM active ingredient and 0.1% surfactant (i.e., TWEEN®-20) v/v.\nPlants were grown to maturity and 5 plants from each treatment and control group were sampled on Sep. 23, 2019. Care was taken to ensure samples were similar in appearance and spatial location between plants to minimize unintended variance in sample quality. The apical cola for each plant was harvested, and specifically, the top 3″ of the main cola. Yield data was not collected in this study, but no obvious differences in plant size or appearance were noted. Samples were submitted for chemical analysis (Avazyme, Inc, NC).\nAll models were linear models fit with Group (treatment) as the independent variable and the response variable was the corresponding compound. Data was filtered and comparison between treatments were conducted using the emmeans package and Tukey HSD for post-hoc corrections. Statistical significance was defined by a level of significance of p<0.05 in the Tukey test. Total cannabinoids included CBN, Δ9-THC, CBDV, CBG, CBD, CBC, CBDA, CBGA, THCA, and THCV. Total THC and total CBD were calculated by accounting for the additional weight of the carboxyl group in the acidic forms and adding those to the neutral/non-acidic forms."}, "[2]": {"system": "marijuana variety Lemon Creamsicle", "test": "Foliar spray of CJ or MDJ on high-THC marijuana in greenhouse, cannabinoid analysis", "assay_type": "in vivo, Cannabis spp.", "conditions": "7.5 mM foliar spray every 14 days, four treatments", "description": "Applicant's previous experiments investigated the effects of jasmonate-type elicitors MeJA, MDJ, and CJ on hemp (high fiber) and high-CBD, (low-THC) varieties of Cannabis. […] Here, the effects of MDJ and CJ application on a high-THC variety in a controlled environment was investigated. High-THC, low-CBD marijuana variety “Lemon Creamsicle” (LC), was grown in a greenhouse setting. LC was used as a plant model due to its historically consistent metabolite profile in the greenhouse environment, making it a stable, known, and reliable variety.\nA four-block plant trial was implemented with a population of N=12 plants and treatment group sizes of n=4. The treatment and control groups were defined as follows: Control=water+0.1% TWEEN®-20 aqueous foliar spray, Treatment 1=[7.5 mM] CJ+0.1% TWEEN®-20 aqueous foliar spray, Treatment 2=[7.5 mM] MDJ+0.1% TWEEN®-20 aqueous foliar spray. A standardized concentration of [7.5 mM] for both CJ and MDJ applications was chosen due to its performance in Applicant's past research. All treatment solutions were prepared the day of the application in equal volumes from pre-measured quantities of the stock materials to ensure consistency, i.e., appropriate volumes of CJ or MDJ were combined with appropriate volumes of TWEEN®-20 for each experimental treatment, stored in a sealed centrifuge tube, and diluted in the appropriate amount of water immediately prior to application. Separate sprayers were used for each treatment and control sprays to avoid cross-contamination.\nAll plants in the trial were produced as asexual clone stock taken from the same mother plant at the same time to ensure homogeneity. All plants were rooted and grown in accordance with the production practices typical to this greenhouse operator prior to plant selection for the experiment. Due to the layout of the cultivation system, which features immovable hydroponic “pots” that house the plant throughout the entire flowering (i.e., reproductive) phase, all plants included in the experiment were selected from a set section of the greenhouse after final transplant into the hydroponic system and grouped in a complete randomized block design accordingly.\nAfter defining the plants to include in the experiment, which were organized in two (2) rows of six (6) plants side-by-side in the hydroponic system, the experimental blocks were defined as groups of three plants, and a research randomizer tool (randomizer.org) was used to generate a randomized arrangement of plants in each group. Using a blocked design in this setting helped account for the immovable nature of the plants and the slight, if any, environmental differences (like natural sunlight, shading from other plants, and corner/edge effect) that existed in the small experimental area. Blocking the experimental arrangement also allowed for improved statistical analysis and resolution considering the small sample size and close proximity of the experimental plants.\nAfter labelling each plant in the experiment with the appropriate group label (Control, T1 [CJ], or T2 [MDJ]), the plants were allowed to grow normally between treatment applications, which were performed every 14 days for a total of four (4) treatments throughout the flowering cycle, which lasted approximately eight (8) weeks. The first treatment occurred seven (7) days after the onset of the flowering cycle, which was dictated by day-length control. Care was taken with each treatment application to minimize overspray onto non-target neighboring plants, and physical barriers were temporarily installed between plants during treatment sprays to aid in this effort. These barriers were removed following treatment sprays when the foliage was no longer visibly wet from the treatment and/or control foliar sprays. […]"}, "[3]": {"system": "oyster mushroom", "test": "Fungal plug growth on jasmonate-infused PDA plates", "assay_type": "cell-based", "conditions": "all concentrations (1 mM, 4.25 mM, 10 mM) in PDA; 72 hours and 10 days", "description": "(§1) MDJ (TCI, CAS No.: 24851-98-7) and CJ were infused into potato dextrose agar (PDA, VWR Cat No.: 90003-494) petri dishes (100×15 mm VWR, Cat No: 25384-094) at concentrations ranging from 1 mM, 4.25 mM, and 10 mM. Each treatment was prepared using a technical grade stock solution of pure chemical (CJ or MDJ) diluted with TWEEN®-20 (VWR, CAS No.: […]). Culturable oyster mushroom and seedling mold served to create fungal mycelial plugs using a sterile 1 mL pipette tip (Eppendorf, Cat No.: 022491458) held upside down. The tips were used to make circle excisions (i.e., fungal plugs) from a mycelial mat grown on PDA with no biochemical infusions. Fungal pugs were then transferred to PDA infused with varying concentrations of CJ or MDJ, and control plates (no CJ or MDJ infusion) to monitor fungal growth at room temperature over time."}, "[4]": {"system": "seedling mold", "test": "Fungal plug growth on jasmonate-infused PDA plates", "assay_type": "cell-based, Trichoderma ghanense", "conditions": "all concentrations (1 mM, 4.25 mM, 10 mM) in PDA; 72 hours and 10 days", "description": "as §1\nTo compare the efficacy of MDJ and MeJA at inhibiting the same seedling mold as used in the experiment above, a second experiment was conducted using PDA plates infused with either MDJ or MeJA at different concentrations. All plates were generated and inoculated as described above and incubated at room temperature under identical conditions. Shown in FIGS. 9A-9C are plates of seedling mold 72 hours post fungal inoculation. Control plates are shown on the top row, followed by concentrations of MeJA (left) and MDJ (right) in duplicate at 1 mM (FIG. 9A), 4.25 mM (FIG. 9B), and 10 mM (FIG. 9C). […] Subsequent sequence analysis identified the “seedling mold” as Trichoderma ghanense."}}}
{"smiles": "CC/C=C\\CC1=C(C)CCC1=O", "note": "[CJ, cis-jasmone]", "values": [{"measurement": "CBDA increase relative to the control group", "setting": "[1]", "result": 23.61, "unit": "%"}, {"measurement": "THCA increase relative to the control group", "setting": "[1]", "result": 27.23, "unit": "%"}, {"measurement": "Total CBD increase relative to the control group", "setting": "[1]", "result": 23.64, "unit": "%"}, {"measurement": "Total Cannabinoids increase relative to the control group", "setting": "[1]", "result": 22.92, "unit": "%"}, {"measurement": "Total THC increase relative to the control group", "setting": "[1]", "result": 27.09, "unit": "%"}, {"measurement": "CBGA average relative percent increase compared to the Control group", "setting": "[2]", "result": 11.22, "unit": "%"}, {"measurement": "THCA average relative percent increase compared to the Control group", "setting": "[2]", "result": 1.13, "unit": "%"}, {"measurement": "Total Cannabinoids average relative percent increase compared to the Control group", "setting": "[2]", "result": 1.17, "unit": "%"}, {"measurement": "Total THC average relative percent increase compared to the Control group", "setting": "[2]", "result": 1.03, "unit": "%"}, {"measurement": "Oyster mushroom fungal growth compared to control", "setting": "[3]", "result": "showed inhibition"}, {"measurement": "seedling mold growth compared to control", "setting": "[4]", "result": "showed inhibition"}]}
